Structures can show the parent of a compound that is named as a salt.

A short description of this data set: Particle size data of fesoterodine fumarate. It counts as physicochemical. Here is the method: (Particle size data of Fesoterodine fumarate: D10-47.3μ; D50-156μ; D90-293μ) • Procedure: Mixture of fesoterodine fumarate, microcrystalline cellulose, corn starch, lactose monohydrate, hypromellose, and povidone K 30 was lubricated with magnesium stearate and talc. The lubricated blend was then compressed into tablets. The tablets were finally coated with Opadry dispersion in purified water.
The formulation was prepared with the same excipients in the same quantity as used in Example 1. Only difference is in the particle size of fesoterodine fumarate used in that formulation. In this comparative example, particle size of fesoterodine fumarate is used such that D10-2.67μ; D50-34.48μ; D90-125.3μ.

Where [1] appears, read: fesoterodine fumarate used in Comparative Example 1.
Setting [2] is: fesoterodine fumarate used in Example 1.

Turning to `CC(C)C(=O)Oc1ccc(CO)cc1[C@H](CCN(C(C)C)C(C)C)c1ccccc1` [Fesoterodine fumarate, 2-[(1R)-3-(diisopropylamino)-1-phenylpropyl]-4-(hydroxymethyl)phenyl isobutyrate], under setting [1], the “Particle size D10” value was found to be 2.67 μ, the “Particle size D50” value turned out to be 34.48 μ and the “Particle size D90” value amounted to 125.3 μ. Under setting [2], the “Particle size D10” value is 47.3 μ, the “Particle size D50” value is reported as 156 μ and the “Particle size D90” value is reported as 293 μ.

Values taken from patent publication US20140199401A1, “EXTENDED RELEASE PHARMACEUTICAL COMPOSITIONS OF FESOTERODINE” (CADILA HEALTHCARE LIMITED, priority 2011, published 2014).
